Values of other authors in patent US20110224245A1, “Treatment Of Neurological Disorders Using Huperzine” (President and Fellows of Harvard College, priority 2008, published 2011).

Tested on: 6 Hz seizures
Conditions: established antiepileptic drugs; cited from earlier work

SMILES	efficacy in the 6 Hz psychomotor seizure model
NC(=O)N1c2ccccc2C=Cc2ccccc21 [carbamazepine]	limited efficacy
Nc1nnc(-c2cccc(Cl)c2Cl)c(N)n1 [lamotrigine]	limited efficacy
O=C1NC(=O)C(c2ccccc2)(c2ccccc2)N1 [phenyloin]	limited efficacy
CC1(C)O[C@@H]2[C@@H](CO[C@@]3(COS(N)(=O)=O)OC(C)(C)O[C@@H]23)O1 [topiramate]	limited efficacy
